In PubChem BioAssay AID330 (DTP/NCI, 2004):
“And” between values parts separate entries of the source, which are not always exact repeats. Identical values can stand only once. Toxic doses and inconclusive results are not listed. Rule for the calls: active = survival T/C of 150% or more; inactive = T/C below 125% in these data.

Tested on: P388 leukemia ip, CD2F1 mice, survival T/C
Experiment: NCI In Vivo Anticancer Drug Screen. Data for tumor model P388 Leukemia (intraperitoneal) in CD2F1 (CDF1) mice
Details: endpoint: median survival time, higher = longer survival
How it was run: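 Mice carrying the transplanted tumor received test compound or vehicle. Survival was recorded in each group, and the value is the treated-group measurement divided by that of the vehicle-treated control group.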

[1] = dose: 50.0 mg/kg/injection, schedule: Q01DX009 (ip), vehicle: saline with Tween-80
[2] = dose: 100.0 mg/kg/injection, schedule: Q01DX009 (ip), vehicle: saline with Tween-80
[3] = dose: 200.0 mg/kg/injection, schedule: Q01DX009 (ip), vehicle: saline with Tween-80
[4] = dose: 50.0 mg/kg/injection, schedule: Q01DX009 (ip), vehicle: Klucel (hydroxypropylcellulose) (HPC)
[5] = dose: 6.25 mg/kg/injection, schedule: Q01DX009 (ip), vehicle: saline with Tween-80
[6] = dose: 12.5 mg/kg/injection, schedule: Q01DX009 (ip), vehicle: saline with Tween-80
[7] = dose: 25.0 mg/kg/injection, schedule: Q01DX009 (ip), vehicle: saline with Tween-80
[8] = dose: 50.0 mg/kg/injection, schedule: Q01DX009 (ip), vehicle: saline
[9] = dose: 100.0 mg/kg/injection, schedule: Q01DX009 (ip), vehicle: saline
[10] = dose: 200.0 mg/kg/injection, schedule: Q01DX009 (ip), vehicle: saline

Measured: T/C

Cc1cc(=NCCCN(C)C)c2ccc3c(ccc4c(=NCCCN(C)C)cc(C)n(O)c43)c2n1O
inactive: dose: 6.25 mg/kg/injection, schedule: Q01DX009 (ip), vehicle: water 106 % of control and 111 % of control | dose: 12.5 mg/kg/injection, schedule: Q01DX009 (ip), vehicle: distilled water + alcohol 102 % of control | dose: 12.5 mg/kg/injection, schedule: Q01DX009 (ip), vehicle: water 100 % of control and 103 % of control and 109 % of control | dose: 25.0 mg/kg/injection, schedule: Q01DX009 (ip), vehicle: distilled water + alcohol 102 % of control | dose: 25.0 mg/kg/injection, schedule: Q01DX009 (ip), vehicle: water 108 % of control and 116 % of control | dose: 50.0 mg/kg/injection, schedule: Q01DX009 (ip), vehicle: distilled water + alcohol 105 % of control

CCCCOC1NC(=O)NC(=O)C1(F)C(=O)OCC (stereo unspecified)
inactive: dose: 60.0 mg/kg/injection, schedule: Q01DX005 (ip), vehicle: saline with Tween-80 108 % of control | dose: 120.0 mg/kg/injection, schedule: Q01DX005 (ip), vehicle: saline with Tween-80 117 % of control | dose: 240.0 mg/kg/injection, schedule: Q01DX005 (ip), vehicle: saline with Tween-80 121 % of control

C=C1CCC2C(OC(=O)C2(O)COC(C)=O)C2C(=C)C(O)CC12 (stereo unspecified)
inactive: dose: 10.63 mg/kg/injection, schedule: Q01DX005 (ip), vehicle: Klucel (hydroxypropylcellulose) (HPC) 99 % of control | dose: 21.25 mg/kg/injection, schedule: Q01DX005 (ip), vehicle: Klucel (hydroxypropylcellulose) (HPC) 104 % of control | dose: 42.5 mg/kg/injection, schedule: Q01DX005 (ip), vehicle: Klucel (hydroxypropylcellulose) (HPC) 100 % of control | dose: 85.0 mg/kg/injection, schedule: Q01DX005 (ip), vehicle: Klucel (hydroxypropylcellulose) (HPC) 106 % of control | dose: 170.0 mg/kg/injection, schedule: Q01DX005 (ip), vehicle: Klucel (hydroxypropylcellulose) (HPC) 106 % of control

Cc1cc(Cl)nc2ccc([N+](=O)[O-])cc12
inactive: dose: 100.0 mg/kg/injection, schedule: Q04DX003 (ip), vehicle: saline 92 % of control | dose: 200.0 mg/kg/injection, schedule: Q04DX003 (ip), vehicle: saline 94 % of control | dose: 400.0 mg/kg/injection, schedule: Q04DX003 (ip), vehicle: saline 91 % of control

C=C1C(C2=NCCN2O)OC2OC(C)(C)OC12 (stereo unspecified)
inactive: dose: 100.0 mg/kg/injection, schedule: Q04DX002 (ip), vehicle: Klucel (hydroxypropylcellulose) (HPC) 98 % of control | dose: 200.0 mg/kg/injection, schedule: Q04DX002 (ip), vehicle: Klucel (hydroxypropylcellulose) (HPC) 103 % of control | dose: 400.0 mg/kg/injection, schedule: Q04DX002 (ip), vehicle: Klucel (hydroxypropylcellulose) (HPC) 97 % of control

CCC(O)C(C)C=O (stereo unspecified)
inactive: dose: 60.0 mg/kg/injection, schedule: Q01DX005 (ip), vehicle: saline 107 % of control | dose: 120.0 mg/kg/injection, schedule: Q01DX005 (ip), vehicle: saline 100 % of control | dose: 240.0 mg/kg/injection, schedule: Q01DX005 (ip), vehicle: saline 104 % of control

[Cl][Mn][Cl].[NH-]NP(=S)(N[NH-])Oc1ccccc1.[NH-]NP(=S)(N[NH-])Oc1ccccc1
inactive: dose: 12.5 mg/kg/injection, schedule: Q01DX005 (ip), vehicle: saline 99 % of control | dose: 25.0 mg/kg/injection, schedule: Q01DX005 (ip), vehicle: saline 100 % of control | dose: 50.0 mg/kg/injection, schedule: Q01DX005 (ip), vehicle: saline 108 % of control

CC(=O)OCC1OC2OC(C)(OC(C)C)OC2C(OC(C)=O)C1OC(C)=O (stereo unspecified)
inactive: dose: 4.0 mg/kg/injection, schedule: Q01DX009 (ip), vehicle: water 106 % of control | dose: 8.0 mg/kg/injection, schedule: Q01DX009 (ip), vehicle: water 102 % of control | dose: 16.0 mg/kg/injection, schedule: Q01DX009 (ip), vehicle: water 100 % of control | dose: 32.0 mg/kg/injection, schedule: Q01DX009 (ip), vehicle: water 99 % of control | dose: 50.0 mg/kg/injection, schedule: Q01DX009 (ip), vehicle: other 108 % of control | dose: 64.0 mg/kg/injection, schedule: Q01DX009 (ip), vehicle: water 98 % of control | dose: 100.0 mg/kg/injection, schedule: Q01DX009 (ip), vehicle: other 108 % of control | dose: 200.0 mg/kg/injection, schedule: Q01DX009 (ip), vehicle: other 102 % of control | dose: 400.0 mg/kg/injection, schedule: Q01DX009 (ip), vehicle: other 102 % of control

S=C1NC2(CCCCCC2)NN1c1ccccc1
inactive: [1] 97 % of control | [2] 94 % of control | [3] 91 % of control

NC1CC2CCCCC2CC1(O)c1ccccc1 (stereo unspecified)
inactive: dose: 12.5 mg/kg/injection, schedule: Q01DX009 (ip), vehicle: Klucel (hydroxypropylcellulose) (HPC) 98 % of control | dose: 25.0 mg/kg/injection, schedule: Q01DX009 (ip), vehicle: Klucel (hydroxypropylcellulose) (HPC) 107 % of control | [4] 107 % of control

COc1ccc(CSC(=S)Nc2ccc(F)c(C)c2)cc1
inactive: dose: 50.0 mg/kg/injection, schedule: Q01DX009 (ip), vehicle: suspension in saline 99 % of control | dose: 100.0 mg/kg/injection, schedule: Q01DX009 (ip), vehicle: suspension in saline 99 % of control

O=P1(N(CCCl)CCCl)Nc2cc3ccccc3cc2N1
inactive: dose: 3.13 mg/kg/injection, schedule: Q01DX009 (ip), vehicle: saline with Tween-80 103 % of control | [5] 96 % of control | [6] 99 % of control | [7] 100 % of control

Cc1cc(=O)oc2cc(OC(=O)N(C)C)c(Cl)cc12
inactive: [1] 100 % of control | [2] 101 % of control | [3] 101 % of control

CCCCN(CCCC)C(=N)/C=C/c1ccccc1
inactive: dose: 6.25 mg/kg/injection, schedule: Q01DX005 (ip), vehicle: Klucel (hydroxypropylcellulose) (HPC) 97 % of control | dose: 12.5 mg/kg/injection, schedule: Q01DX005 (ip), vehicle: Klucel (hydroxypropylcellulose) (HPC) 103 % of control

O=C(OC1CCC2(CC1)SCCS2)c1ccccc1
inactive: dose: 100.0 mg/kg/injection, schedule: Q04DX003 (ip), vehicle: saline with Tween-80 100 % of control | dose: 200.0 mg/kg/injection, schedule: Q04DX003 (ip), vehicle: saline with Tween-80 100 % of control | dose: 400.0 mg/kg/injection, schedule: Q04DX003 (ip), vehicle: saline with Tween-80 104 % of control

CCOC1N(c2ccc(Cl)cc2)CN(CCCN(C)C)CC1(C)C (stereo unspecified)
inactive: [1] 104 % of control | [2] 104 % of control | [3] 117 % of control

COC(=O)C(Cc1ccccc1)NC(=O)C(C)NC(=O)c1ccc(OC)cc1 (stereo unspecified)
inactive: dose: 100.0 mg/kg/injection, schedule: Q01DX001 (ip), vehicle: saline with Tween-80 100 % of control | dose: 200.0 mg/kg/injection, schedule: Q01DX001 (ip), vehicle: saline with Tween-80 100 % of control | dose: 400.0 mg/kg/injection, schedule: Q01DX001 (ip), vehicle: saline with Tween-80 93 % of control

CC1=C[C@H]2[C@@]3(O)[C@H](C)[C@@H](OC(=O)c4ccccc4)[C@]4(OC(=O)c5ccccc5)[C@H]([C@@H]3C=C(COC(=O)c3ccccc3)C[C@]2(O)C1=O)C4(C)C
inactive: dose: 20.0 micrograms/kg/injection, schedule: Q01DX009 (ip), vehicle: saline + alcohol 100 % of control | dose: 40.0 micrograms/kg/injection, schedule: Q01DX009 (ip), vehicle: saline + alcohol 96 % of control | dose: 80.0 micrograms/kg/injection, schedule: Q01DX009 (ip), vehicle: saline + alcohol 102 % of control | dose: 160.0 micrograms/kg/injection, schedule: Q01DX009 (ip), vehicle: saline + alcohol 100 % of control | dose: 320.0 micrograms/kg/injection, schedule: Q01DX009 (ip), vehicle: saline + alcohol 94 % of control

C=C[Se](=C(C(C)=O)C(C)=O)c1ccccc1 (stereo unspecified)
inactive: [6] 97 % of control | [7] 96 % of control | [1] 98 % of control | [8] 92 % of control | [9] 99 % of control | [10] 92 % of control

CCOC(=O)/C=C1/SC(N2CCCCC2)C(=O)N1C (stereo unspecified)
inactive: [8] 100 % of control | [9] 104 % of control | [10] 100 % of control

O=C(O)C(Cc1ccccc1)NP(=S)(c1ccccc1)c1ccccc1 (stereo unspecified)
inactive: [4] 110 % of control | dose: 100.0 mg/kg/injection, schedule: Q01DX009 (ip), vehicle: Klucel (hydroxypropylcellulose) (HPC) 97 % of control | dose: 200.0 mg/kg/injection, schedule: Q01DX009 (ip), vehicle: Klucel (hydroxypropylcellulose) (HPC) 106 % of control

O=C1C(=O)c2ccccc2-c2ccccc21
inactive: [5] 104 % of control | [6] 104 % of control | [7] 108 % of control | [1] 100 % of control

N#Cc1ccc(CC(O)(c2ccccc2)c2ccccc2)cc1
inactive: [8] 99 % of control | [9] 101 % of control | [10] 95 % of control | dose: 400.0 mg/kg/injection, schedule: Q01DX009 (ip), vehicle: saline 87 % of control
